In publication PMC5785446 (Alcoholism, clinical and experimental research, 2018):

Legend:
C57BL/6J mice = conditions: mouse, in vivo
wild-type mice = conditions: mouse, in vivo
human MOP receptor = human MOP receptor (Homo sapiens, UniProt P35372); assay type: biochemical
Sequence of human MOP receptor (P35372 whole entry): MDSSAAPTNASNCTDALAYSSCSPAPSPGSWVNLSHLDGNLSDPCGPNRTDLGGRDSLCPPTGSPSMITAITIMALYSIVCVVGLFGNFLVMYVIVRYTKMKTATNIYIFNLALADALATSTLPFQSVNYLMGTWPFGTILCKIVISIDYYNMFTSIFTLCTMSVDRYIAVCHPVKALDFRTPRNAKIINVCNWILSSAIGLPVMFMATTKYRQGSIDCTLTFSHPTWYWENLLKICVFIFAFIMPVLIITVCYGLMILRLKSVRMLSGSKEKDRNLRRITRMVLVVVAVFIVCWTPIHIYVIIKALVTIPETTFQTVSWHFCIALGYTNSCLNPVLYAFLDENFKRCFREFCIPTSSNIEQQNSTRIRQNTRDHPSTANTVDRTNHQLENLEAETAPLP

Compound	effect on ethanol-induced CPP (C57BL/6J mice)	motor sedative effect on conditioning days (wild-type mice)	[35S]GTPγS MOP % Stim (human MOP receptor)
CCCC(C)C1(CC)C(=O)NC(=O)NC1=O (stereo not drawn) [pentobarbital]	did not alter the rewarding action of ethanol	robust motor sedative effect	
C[C@@H](NC(=O)[C@@H](N)Cc1ccc(O)cc1)C(=O)NCC(=O)N(C)[C@@H](Cc1ccccc1)C(=O)NCCO [DAMGO]			100%
